Activity calls are given as the source filed them. The calls are words filed in the database; no cut-off is given here.
Columns and labels:
[1] = tested on: HeLa; assay: Ratio of compound IC50 to 5-flurouracil IC50 for human HeLa cells; assay type: functional
[2] = tested on: L1210; assay: Inhibition of RNA synthesis in mouse L1210 cells assessed as [5-3H]uridine incorporation in to RNA by liquid scintillation counting; assay type: functional, cell-based
[3] = tested on: Sindbis virus; assay: Antiviral activity against Sindbis virus infected in Vero cells assessed as inhibition of virus-induced cytopathic effect; assay type: functional, organism-based
[4] = tested on: Vaccinia virus; assay: Antiviral activity against Vaccinia virus infected in HEL cells assessed as inhibition of virus-induced cytopathic effect; assay type: functional, organism-based; conditions: Orthopoxvirus vaccinia
[5] = tested on: L1210; assay: Cytostatic activity against mouse L1210 cells in presence of 20 uM thymidine; assay type: functional, cell-based
[6] = tested on: Mammalian orthoreovirus 1; assay: Antiviral activity against Reovirus 1 infected in Vero cells assessed as inhibition of virus-induced cytopathic effect; assay type: functional, organism-based
[7] = tested on: Respiratory syncytial virus; assay: Antiviral activity against Respiratory syncytial virus infected in HeLa cells assessed as inhibition of virus-induced cytopathic effect; assay type: functional, organism-based
[8] = tested on: Punta Toro virus; assay: Antiviral activity against Punta Toro virus infected in Vero cells assessed as inhibition of virus-induced cytopathic effect; assay type: functional, organism-based
[9] = tested on: L1210; assay: Cytostatic activity against mouse L1210 cells in presence of 500 uM uridine; assay type: functional, cell-based
[10] = tested on: CCRF-CEM; assay: Cytostatic activity against human CEM cells after 3 days by coulter counting analysis; assay type: functional, cell-based; conditions: 72 h
[11] = tested on: CCRF-CEM; assay: Ratio of compound IC50 to 5-flurouracil IC50 for human CEM cells; assay type: functional
[12] = tested on: HeLa; assay: Cytostatic activity against human HeLa cells in presence of 20 uM thymidine; assay type: functional, cell-based
[13] = tested on: HeLa; assay: Cytostatic activity against human HeLa cells in presence of 20 uM 2'-deoxyuridine; assay type: functional, cell-based
[14] = tested on: Human alphaherpesvirus 2; assay: Antiviral activity against Herpes simplex virus type-2 infected in HEL cells assessed as inhibition of virus-induced cytopathic effect; assay type: functional, organism-based
[15] = tested on: L1210; assay: Ratio of compound IC50 to 5-flurouracil IC50 for mouse L1210 cells; assay type: functional
[16] = tested on: L1210; assay: Cytostatic activity against mouse L1210 cells in presence of 20 uM 2'-deoxyuridine; assay type: functional, cell-based
[17] = tested on: Vesicular stomatitis virus; assay: Antiviral activity against Vesicular stomatitis virus infected in HeLa cells assessed as inhibition of virus-induced cytopathic effect; assay type: functional, organism-based
[18] = tested on: Human respirovirus 3; assay: Antiviral activity against Human parainfluenza virus 3 infected in Vero cells assessed as inhibition of virus-induced cytopathic effect; assay type: functional, organism-based
[19] = tested on: L1210; assay: Cytostatic activity against mouse L1210 cells after 2 days by coulter counting analysis; assay type: functional, cell-based; conditions: L1210, 48 h
[20] = tested on: L1210; assay: Inhibition of DNA synthesis in mouse L1210 cells assessed as [6-3H]2'-deoxyuridine incorporation in to DNA by liquid scintillation counting; assay type: functional, cell-based
[21] = tested on: L1210; assay: Inhibition of DNA synthesis in mouse L1210 cells assessed as [methyl-3H]thymidine incorporation in to DNA preincubated for 24 hrs by liquid scintillation counting; assay type: functional, cell-based
[22] = tested on: FM3A; assay: Ratio of compound IC50 to 5-flurouracil IC50 for mouse FM3A cells; assay type: functional
[23] = tested on: L1210; assay: Inhibition of DNA synthesis in mouse L1210 cells assessed as [methyl-3H]thymidine incorporation in to DNA by liquid scintillation counting; assay type: functional, cell-based
[24] = tested on: FM3A; assay: Cytostatic activity against mouse FM3A cells after 2 days by coulter counting analysis; assay type: functional, cell-based; conditions: 48 h
[25] = tested on: HeLa; assay: Cytostatic activity against human HeLa cells after 3 days by coulter counting analysis; assay type: functional, cell-based; conditions: 72 h
[26] = tested on: L1210; assay: Inhibition of RNA synthesis in mouse L1210 cells assessed as [5-3H]uridine incorporation in to RNA preincubated for 24 hrs by liquid scintillation counting; assay type: functional, cell-based
[27] = tested on: Human alphaherpesvirus 1; assay: Antiviral activity against Herpes simplex virus type-1 infected in HEL cells assessed as inhibition of virus-induced cytopathic effect; assay type: functional, organism-based
[28] = tested on: Vesicular stomatitis virus; assay: Antiviral activity against Vesicular stomatitis virus infected in HEL cells assessed as inhibition of virus-induced cytopathic effect; assay type: functional, organism-based
[29] = tested on: Coxsackievirus B4; assay: Antiviral activity against Human coxsackievirus B4 infected in Vero cells assessed as inhibition of virus-induced cytopathic effect; assay type: functional, organism-based
[30] = tested on: HeLa; assay: Cytostatic activity against human HeLa cells in presence of 500 uM uridine; assay type: functional, cell-based
[31] = tested on: Coxsackievirus B4; assay: Antiviral activity against Human coxsackievirus B4 infected in HeLa cells assessed as inhibition of virus-induced cytopathic effect; assay type: functional, organism-based
[32] = tested on: L1210; assay: Cytostatic activity against mouse L1210 cells in presence of 500 uM uracil; assay type: functional, cell-based
[33] = tested on: HeLa; assay: Cytostatic activity against human HeLa cells in presence of 500 uM uracil; assay type: functional, cell-based
[34] = tested on: L1210; assay: Inhibition of DNA synthesis in mouse L1210 cells assessed as [6-3H]2'-deoxyuridine incorporation in to DNA preincubated for 24 hrs by liquid scintillation counting; assay type: functional, cell-based
[35] = target: T1, Thymidylate synthase (Mus musculus, UniProt P07607); assay: Inhibition of thymidylate synthase in mouse L1210 cells assessed as inhibition of tritium release from [5-3H]deoxycytidine after preincubation for 15 mins by liquid scintillation counting; assay type: cell-based
T1 sequence (P07607 whole entry): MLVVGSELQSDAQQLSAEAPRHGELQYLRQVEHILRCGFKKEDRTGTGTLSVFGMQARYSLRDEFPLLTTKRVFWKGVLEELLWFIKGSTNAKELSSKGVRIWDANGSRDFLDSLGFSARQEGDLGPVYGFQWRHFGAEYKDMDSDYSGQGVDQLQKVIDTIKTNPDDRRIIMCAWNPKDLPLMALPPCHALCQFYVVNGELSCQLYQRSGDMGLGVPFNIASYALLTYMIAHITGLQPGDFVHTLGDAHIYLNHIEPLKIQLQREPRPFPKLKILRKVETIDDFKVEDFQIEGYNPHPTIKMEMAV

[36] = target: T1, Thymidylate synthase; assay: Inhibition of thymidylate synthase in mouse L1210 cells assessed as inhibition of tritium release from [5-3H]deoxyuridine after preincubation for 24 hrs by liquid scintillation counting; assay type: cell-based
[37] = target: T1, Thymidylate synthase; assay: Inhibition of thymidylate synthase in mouse L1210 cells assessed as inhibition of tritium release from [5-3H]deoxyuridine after preincubation for 15 mins by liquid scintillation counting; assay type: cell-based
[38] = target: T1, Thymidylate synthase; assay: Inhibition of thymidylate synthase in mouse L1210 cells assessed as inhibition of tritium release from [5-3H]deoxyuridine after preincubation for 4 hrs by liquid scintillation counting; assay type: cell-based
[39] = target: T1, Thymidylate synthase; assay: Inhibition of thymidylate synthase in mouse L1210 cells assessed as inhibition of tritium release from [5-3H]deoxycytidine after preincubation for 24 hrs by liquid scintillation counting; assay type: cell-based
[40] = target: T1, Thymidylate synthase; assay: Inhibition of thymidylate synthase in mouse L1210 cells assessed as inhibition of tritium release from [5-3H]deoxycytidine after preincubation for 4 hrs by liquid scintillation counting; assay type: cell-based
[41] = Stability of compound in phosphate buffered saline up to 3 days; assay type: physicochemical; conditions: buffer, 72 h
[42] = Stability of compound in phosphate buffer at pH 6.2 after 60 mins; assay type: physicochemical; conditions: pH 6.2, 1 h

| Structure (SMILES) | Activity [3] | Activity [4] | IC50 [5] [µM] | Activity [6] | Activity [7] | Activity [8] | IC50 [9] [µM] | IC50 [12] [µM] | IC50 [13] [µM] | Activity [14] | IC50 [16] [µM] | Activity [17] | Activity [18] | IC50 [24] [µM] | Activity [27] | Activity [28] | Activity [29] | IC50 [30] [µM] | Activity [31] | IC50 [32] [µM] | further results |
| --- | --- | --- | --- | --- | --- | --- | --- | --- | --- | --- | --- | --- | --- | --- | --- | --- | --- | --- | --- | --- | --- |
| O=C1C=CCO[C@@H]1n1cc(F)c(O)nc1=O | inactive | inactive | 75 | inactive | inactive | inactive | 2 | 7.1 | 0.62 | inactive | 3.5 | inactive | inactive | 0.23 | inactive | inactive | inactive | 5.3 | inactive | 1 | Ratio [1]: 1.5; IC50 [2]: 63 µM; IC50 [10]: 17 µM; Ratio [11]: 1.5; Ratio [15]: 1.5; IC50 [19]: 1.3 µM; IC50 [20]: 3.1 µM; IC50 [21]: 294 µM; Ratio [22]: 1.5; IC50 [23]: 349 µM; IC50 [25]: 0.97 µM; IC50 [26]: 16 µM; IC50 [33]: 8 µM; IC50 [34]: 2.5 µM |
| O=c1[nH]c(=O)n([C@H]2C[C@H](O)[C@@H](CO)O2)cc1F [FLOXURIDINE] | inactive | inactive | 100 | inactive | inactive | inactive | 0.0023 | 8.5 | 0.021 | inactive | 0.0051 | inactive | inactive | 0.0094 | inactive | inactive | inactive | 0.061 | inactive | 0.00063 | IC50 [35]: 0.0006 µM; IC50 [19]: 0.0011 µM; IC50 [36]: 0.0004 µM; IC50 [37]: 0.0006 µM; IC50 [38]: 0.0004 µM; IC50 [39]: 0.0007 µM; IC50 [33]: 0.11 µM |
| C=C1C=CCO[C@@H]1n1cc(F)c(O)nc1=O | inactive | inactive | 182 | inactive | inactive | inactive | 5.7 | 34 | 1.4 | inactive | 18 | inactive | inactive | 2.4 | inactive | inactive | inactive | 8 | inactive | 5.8 | IC50 [2]: > 100 µM; IC50 [10]: 85 µM; IC50 [19]: 8 µM; IC50 [20]: 37 µM; IC50 [21]: > 500 µM; IC50 [23]: > 500 µM; IC50 [25]: 3.5 µM; IC50 [26]: 84 µM; IC50 [33]: 18 µM; IC50 [34]: 7.9 µM |
| O=c1[nH]cc(F)c(=O)[nH]1 [FLUOROURACIL] | inactive | inactive | 21 | inactive | inactive | inactive | 0.62 | 1.5 | 0.18 | inactive | 1.3 | inactive | inactive | 0.18 | inactive | inactive | inactive | 1.1 | inactive | 0.47 | IC50 [2]: 51 µM; IC50 [35]: ≥ 10 µM; IC50 [40]: 0.6 µM; IC50 [20]: 0.97 µM; IC50 [21]: > 500 µM; IC50 [36]: 0.02 µM; IC50 [23]: > 500 µM; IC50 [25]: 0.45 µM; IC50 [26]: 4.9 µM; IC50 [37]: 7 µM; IC50 [38]: 0.22 µM; IC50 [39]: 0.06 µM; IC50 [33]: 1 µM; IC50 [34]: 0.37 µM |
| C=C1C=CCO[C@@H]1n1cc(F)c(=O)[nH]c1=O | – | – | – | – | – | – | – | – | – | – | – | – | – | – | – | – | – | – | – | – | IC50 [35]: > 10 µM; IC50 [40]: 9.3 µM; Stability [41]: Stable; IC50 [36]: 0.43 µM; IC50 [37]: > 10 µM; IC50 [38]: 8.7 µM; Stability [42]: Stable; IC50 [39]: 2.2 µM |
| C=C1[C@H](O)[C@H](O)CO[C@@H]1n1cc(F)c(=O)[nH]c1=O | – | – | – | – | – | – | – | – | – | – | – | – | – | – | – | – | – | – | – | – | IC50 [35]: 8.2 µM; IC50 [40]: 5.5 µM; Stability [41]: Stable; IC50 [36]: 0.57 µM; IC50 [37]: ≥ 10 µM; IC50 [38]: 3.6 µM; Stability [42]: Stable; IC50 [39]: 5.4 µM |
| C=C1[C@H](O)[C@H](O)CO[C@@H]1n1cc(F)c(O)nc1=O | inactive | inactive | > 500 | inactive | inactive | inactive | 18 | 146 | 12 | inactive | 66 | inactive | inactive | 1.9 | inactive | inactive | inactive | 79 | inactive | 18 | IC50 [2]: > 100 µM; IC50 [10]: 97 µM; IC50 [19]: 21 µM; IC50 [20]: 85 µM; IC50 [21]: > 500 µM; IC50 [23]: > 500 µM; IC50 [25]: 18 µM; IC50 [26]: 282 µM; IC50 [33]: 58 µM; IC50 [34]: 18 µM |
| O=C1C=CCO[C@@H]1n1cc(F)c(=O)[nH]c1=O | – | – | – | – | – | – | – | – | – | – | – | – | – | – | – | – | – | – | – | – | IC50 [35]: > 10 µM; IC50 [40]: 0.95 µM; Stability [41]: Unstable; IC50 [36]: 0.063 µM; IC50 [37]: 8.1 µM; IC50 [38]: 0.83 µM; IC50 [39]: 0.071 µM |

From ChEMBL document CHEMBL1759968, “Synthesis and biological evaluation of unsaturated keto and exomethylene D-arabinopyranonucleoside analogs: novel 5-fluorouracil analogs that target thymidylate synthase” (Eur J Med Chem, 2011)
